Where two headings read alike, the source gives them in different places.
Columns and labels:
recombinant AtCKX2 = biological target: T1, recombinant AtCKX2 (Arabidopsis thaliana, UniProt Q9FUJ3); experiment: Inhibition of cytokinin oxidase/dehydrogenase activity (PMS/MTT microtitre plate assay); type: biochemical; settings: 30 μM iP as substrate, pH 7.4, 37° C.; means of three replicates; read-out: IC50, inhibition of recombinant AtCKX2
T1 sequence (Q9FUJ3 23-501): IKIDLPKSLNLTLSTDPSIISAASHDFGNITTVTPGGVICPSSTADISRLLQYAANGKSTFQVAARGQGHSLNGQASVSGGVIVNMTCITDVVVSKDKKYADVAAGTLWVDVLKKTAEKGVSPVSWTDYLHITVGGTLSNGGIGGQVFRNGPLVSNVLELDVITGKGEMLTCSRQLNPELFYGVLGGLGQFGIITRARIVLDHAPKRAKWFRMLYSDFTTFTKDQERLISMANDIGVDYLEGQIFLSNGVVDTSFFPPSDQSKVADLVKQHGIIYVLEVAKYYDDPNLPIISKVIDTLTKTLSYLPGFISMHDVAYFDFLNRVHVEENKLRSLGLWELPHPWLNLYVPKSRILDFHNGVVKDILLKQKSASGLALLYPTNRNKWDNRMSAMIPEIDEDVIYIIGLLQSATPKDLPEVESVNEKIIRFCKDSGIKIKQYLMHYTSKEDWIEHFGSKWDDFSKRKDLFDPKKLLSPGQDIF
Description: IC50 determinations were done using the assay in microtitre plate. Each well contained 100 μL of PMS/MTT [phenazine methosulfate/3-(4,5-dimethylthiazol-2-yl)-2,5-diphenyltetrazolium bromide] reaction mixture (final concentrations: 0.1 M KH2PO4, pH 7.4, 1 mM MTT, 0.2 mM PMS) containing the tested compound (3×10^−7 M-3×10^−4 M) and 30 μM N^6-isopentenyladenine (iP) as a substrate. 100 μL of cell-free growth medium of S. cerevisiae strain 23344c ura^− harboring the plasmid pYES2-AtCKX2 was directly used as a source of AtCKX2. Plates were incubated in the dark for […] at 37° C. and the enzymatic reaction was stopped by 25 μL of 35% acetic acid. The absorbance at 578 nm was measured using spectrophotometer Tecan. Absorbance of the sample without iP was subtracted.
The IC50 value, the compound concentration that inhibits the enzyme activity to 50%, was calculated from the obtained dose response curves. The values shown in Table 9 are means of three replicates and the entire test was repeated at least twice.

[1] = system: cytokinin-dependent tobacco callus Nicotiana tabacum L. cv. Wisconsin 38; experiment: Tobacco callus biotest (plant cell division); type: cell-based; settings: at the concentration with highest activity, relative to 10^−5 M kinetin
AHK3 = biological target: T2, AHK3 (Arabidopsis thaliana, UniProt Q9C5U1); experiment: Activation of cytokinin receptors (E. coli KMI001 beta-galactosidase reporter); type: cell-based; settings: 28 h incubation; n.a. means no activation
T2 sequence (Q9C5U1 1-1036): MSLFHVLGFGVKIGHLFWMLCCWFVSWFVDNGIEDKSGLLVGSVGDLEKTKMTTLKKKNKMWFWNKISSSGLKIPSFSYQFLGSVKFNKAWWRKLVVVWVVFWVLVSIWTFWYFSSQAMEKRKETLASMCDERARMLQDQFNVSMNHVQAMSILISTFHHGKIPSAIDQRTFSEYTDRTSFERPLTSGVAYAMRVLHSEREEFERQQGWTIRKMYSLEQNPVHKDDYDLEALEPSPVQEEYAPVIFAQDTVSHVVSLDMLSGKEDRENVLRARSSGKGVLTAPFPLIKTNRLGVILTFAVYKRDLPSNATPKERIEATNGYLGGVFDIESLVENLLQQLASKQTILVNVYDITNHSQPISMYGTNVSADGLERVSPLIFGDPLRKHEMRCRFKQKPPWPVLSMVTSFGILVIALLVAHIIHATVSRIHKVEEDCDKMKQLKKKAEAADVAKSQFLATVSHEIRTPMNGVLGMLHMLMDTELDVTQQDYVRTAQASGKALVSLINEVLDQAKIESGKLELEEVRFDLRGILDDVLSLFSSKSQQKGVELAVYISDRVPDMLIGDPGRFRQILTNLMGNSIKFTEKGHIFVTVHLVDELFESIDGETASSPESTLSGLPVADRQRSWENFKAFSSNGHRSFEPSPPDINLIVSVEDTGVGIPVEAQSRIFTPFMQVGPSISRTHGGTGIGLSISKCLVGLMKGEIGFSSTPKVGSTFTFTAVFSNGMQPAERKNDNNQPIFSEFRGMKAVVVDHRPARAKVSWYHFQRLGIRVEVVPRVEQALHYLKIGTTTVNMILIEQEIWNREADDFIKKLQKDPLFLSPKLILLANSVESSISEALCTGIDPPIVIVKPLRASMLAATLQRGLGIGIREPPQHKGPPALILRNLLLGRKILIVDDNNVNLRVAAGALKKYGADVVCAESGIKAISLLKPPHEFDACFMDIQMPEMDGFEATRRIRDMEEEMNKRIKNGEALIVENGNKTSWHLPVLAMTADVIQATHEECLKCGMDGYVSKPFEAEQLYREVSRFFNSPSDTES
Procedure, shortened: (§1)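 E. coli KMI001 carrying the receptor plasmid was grown in M9 + 0.1% casamino acids at 25 °C, diluted 1:600 and treated with compound (stock solutions 10^-7–5×10^-5 M). Supernatant β-galactosidase was read by 4-methylumbelliferyl galactoside hydrolysis (1 h, 37 °C, Na2CO3 stop). EC50 came from dose-response curves, triplicate means.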

CRE1/AHK4 = CRE1/AHK4 (Arabidopsis thaliana, UniProt Q9C5U0); experiment: as above; type: cell-based; settings: 17 h incubation; n.a. means no activation
Sequence of CRE1/AHK4 (Q9C5U0 whole entry): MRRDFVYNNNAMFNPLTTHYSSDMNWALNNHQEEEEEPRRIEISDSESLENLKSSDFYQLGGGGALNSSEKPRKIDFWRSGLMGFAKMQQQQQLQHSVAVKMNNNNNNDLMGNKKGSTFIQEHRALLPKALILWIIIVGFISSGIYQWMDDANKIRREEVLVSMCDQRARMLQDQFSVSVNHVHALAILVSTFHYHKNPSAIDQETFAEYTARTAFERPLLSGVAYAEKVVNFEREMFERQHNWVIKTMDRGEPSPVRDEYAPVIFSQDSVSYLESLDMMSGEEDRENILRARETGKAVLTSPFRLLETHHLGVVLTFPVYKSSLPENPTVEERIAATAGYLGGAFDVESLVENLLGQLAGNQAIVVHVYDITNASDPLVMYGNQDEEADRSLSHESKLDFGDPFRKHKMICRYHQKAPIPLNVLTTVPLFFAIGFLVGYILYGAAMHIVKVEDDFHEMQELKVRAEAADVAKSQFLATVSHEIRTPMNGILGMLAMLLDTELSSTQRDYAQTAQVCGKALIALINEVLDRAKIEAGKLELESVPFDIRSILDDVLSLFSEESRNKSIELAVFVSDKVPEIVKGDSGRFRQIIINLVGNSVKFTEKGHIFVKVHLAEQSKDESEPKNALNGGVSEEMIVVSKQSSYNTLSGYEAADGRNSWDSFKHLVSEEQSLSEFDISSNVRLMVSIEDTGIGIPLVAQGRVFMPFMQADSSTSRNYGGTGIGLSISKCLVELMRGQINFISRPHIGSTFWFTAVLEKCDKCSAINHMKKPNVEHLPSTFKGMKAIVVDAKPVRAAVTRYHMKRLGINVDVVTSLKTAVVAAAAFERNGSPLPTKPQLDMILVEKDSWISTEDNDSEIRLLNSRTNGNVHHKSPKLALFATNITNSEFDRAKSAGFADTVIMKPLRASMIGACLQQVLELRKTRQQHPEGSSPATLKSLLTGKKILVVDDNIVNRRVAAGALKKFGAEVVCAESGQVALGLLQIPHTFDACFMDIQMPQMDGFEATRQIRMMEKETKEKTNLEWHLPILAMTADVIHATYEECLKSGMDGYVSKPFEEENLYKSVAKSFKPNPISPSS
Procedure, shortened: as §1

[2] = system: Amaranthus caudatus cotyledon/hypocotyl explants; experiment: Amaranthus bioassay (betacyanin content); type: cell-based, Amaranthus caudatus var. atropurpurea; settings: at the concentration with highest activity, relative to 10^−5 M kinetin
Procedure, shortened: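 Etiolated A. caudatus cotyledon/hypocotyl explants (72 h seedlings, roots removed) incubated 48 h at 25 °C in darkness on medium with phosphate buffer pH 6.8, tyrosine and test compound. Betacyanin extracted in acetic acid, quantified as A537−A620.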

[3] = system: osteosarcoma cell line HOS; experiment: Calcein AM cytotoxicity assay; type: cell-based, human; settings: Homo sapiens, 72 hours
Text: (§2) Absence of toxic effects against mammalian (especially human) cell lines in a wide concentration range is one of the requirements on compounds intended for use in agriculture and medicine. Because toxic compounds negatively influence metabolic processes in cells, many standard cytotoxicity assays are based on measurement of metabolisation rate of various artificial substrates. Resulting product is then quantified e.g. by means of spectrometry. The assays can be easily modified for use in 96-well plates. For evaluation of cytotoxic effect of compounds of this invention, a microtiter assay based on quantification of metabolisation of Calcein AM was used. The assay is widely used in drug screening programs and in chemosensitivity testing. In live cells, Calcein AM is enzymatically hydrolysed and accumulation of resulting calcein is manifested by green fluorescence.
(§3) Following human cell lines were used for routine screening of the compounds: T-lymphoblastic leukemia cell line CEM, promyelocytic leukemia cell line HL-60, erytroid leukemia cell line K-562, breast carcinoma cell line MCF-7, osteosarcoma cell line HOS and melanoma cell line G-361. Mouse cell lines B16-F10 (melanoma) and NIH-3T3 (fibroblasts) were used as well. The cells were maintained in Nunc/Corning 80 cm^2 plastic tissue culture flasks and cultured in cell culture medium (DMEM with 5 g/l glucose, 2 mM glutamine, 100 U/ml penicillin, 100 μg/ml streptomycin, 10% fetal calf serum and sodium bicarbonate).
(§4) The cell suspensions were prepared and diluted according to the particular cell type and the expected target cell density (2.500-30.000 cells per well based on cell growth characteristics) and pippetted (80 μl) into 96-well plates. Inoculates were allowed a pre-incubation period of 24 hours at 37° C. and 5% CO2 for stabilisation. Tested compound was added in total volume of 20 μl of water at time zero. Usually, test compound was evaluated at six 3-fold dilutions. In routine testing, the highest concentration tested was 166.6 μM. All drug concentrations were tested in triplicates. Incubations of cells with the test compounds lasted for 72 hours at 37° C., in 5% CO2 atmosphere and 100% humidity. At the end of incubation period Calcein AM in PBS was added into final concentration of 1 μg/ml. After another 1 hour of incubation fluorescence (FD) was measured with the Labsystem FIA Reader Fluoroscan Ascent (UK). Growth inhibition (GI) was estimated using the following equitation: GI=(mean FDdrug exposed wells−mean FDblank)/(mean FDcontrol wells−mean FDblank)×100%. The GI50 value, the drug concentration causing 50% reduction of Calcein AM conversion, was calculated from the obtained dose response curves.

[4] = system: breast carcinoma cell line MCF-7; experiment: Calcein AM cytotoxicity assay; type: cell-based, human
Text: as §2
(§5) Mouse cell lines B16-F10 (melanoma) and NIH-3T3 (fibroblasts) were used as well. The cells were maintained in Nunc/Corning 80 cm^2 plastic tissue culture flasks and cultured in cell culture medium (DMEM with 5 g/l glucose, 2 mM glutamine, 100 U/ml penicillin, 100 μg/ml streptomycin, 10% fetal calf serum and sodium bicarbonate).
as §4, with “In routine testing, the highest concentration tested was 166.6 μM.” left out, “FDblank)×100%.” for “FDblank)×100%. The GI50 value, the drug concentration causing 50% reduction of Calcein AM conversion, was calculated from the obtained dose response curves.”

NIH-3T3 (fibroblasts) = experiment: Calcein AM cytotoxicity assay; type: cell-based, Mouse
Text: as §2, §5
as §4, with “In routine testing, the highest concentration tested was 166.6 μM.” left out, “FDblank)×100%.” for “FDblank)×100%. The GI50 value, the drug concentration causing 50% reduction of Calcein AM conversion, was calculated from the obtained dose response curves.”

[5] = system: erytroid leukemia cell line K-562; experiment: Calcein AM cytotoxicity assay; type: cell-based, human; settings: Homo sapiens, K562, 72 hours
Text: as §2, §3, §4

[6] = system: promyelocytic leukemia cell line HL-60; experiment: Calcein AM cytotoxicity assay; type: cell-based, human; settings: read-out: GI50 HL60
Text: as §2, §5
as §4, with “In routine testing, the highest concentration tested was 166.6 μM.” left out, “FDblank)×100%.” for “FDblank)×100%. The GI50 value, the drug concentration causing 50% reduction of Calcein AM conversion, was calculated from the obtained dose response curves.”

[7] = system: T-lymphoblastic leukemia cell line CEM; experiment: Calcein AM cytotoxicity assay; type: cell-based, human; settings: 72 hours
Text: as §2, §5
as §4, with “In routine testing, the highest concentration tested was 166.6 μM.” left out, “FDblank)×100%.” for “FDblank)×100%. The GI50 value, the drug concentration causing 50% reduction of Calcein AM conversion, was calculated from the obtained dose response curves.”

[8] = system: CKX1 overproducing Arabidopsis seedlings; experiment: CKX1 overproducing Arabidopsis seedlings grown in vitro on MS medium, phenotype reversion; type: in vivo; settings: in vitro on MS medium containing 0.1 μM compound

| EC50 (AHK3) [µM] | EC50 (CRE1/AHK4) [µM] | Structure (SMILES) | GI50 [3] [µM] | GI50 ([4]; Homo sapiens, MCF7, 72 hours) [µM] | GI50 (NIH-3T3 (fibroblasts); Mus musculus, NIH3T3, 72 hours) [µM] | GI50 ([6]; Homo sapiens, HL-60, 72 hours) [µM] | GI50 ([7]; Homo sapiens) [µM] | other results |
| --- | --- | --- | --- | --- | --- | --- | --- | --- |
| 42.1 | > 50 | Fc1cccc(Nc2nc(F)nc3[nH]cnc23)c1 [Compound 45] |  |  |  |  |  | IC50 (recombinant AtCKX2): 22.1 µM; Activity (%) [10^−5 mol · l^−1 K = 100%] [1]: 127.9%; Activity (%) [10^−5 mol · l^−1 K = 100%] [2]: 105.1% |
| > 50 | > 50 | Nc1nc(Nc2ccc(O)cc2)c2nc[nH]c2n1 [Compound 73] | > 167 | > 167 | > 167 |  |  |  |
|  |  | Nc1ncnc2nc[nH]c12 [adenine, reference compound] |  | > 167 | > 167 | > 167 | > 167 | GI50 [5]: > 167 µM |
|  |  | c1ccc(CNc2ncnc3nc[nH]c23)cc1 [benzylamino, 6-benzylaminopurine, reference compound] | > 167 |  | > 167 | > 167 | > 167 | reversion of WT phenotype [8]: appeared only when the compound 12 was present |

| Structure (SMILES) | EC50 (AHK3) [µM] | EC50 (CRE1/AHK4) [µM] | GI50 [3] [µM] | GI50 ([4]; Homo sapiens, MCF7, 72 hours) [µM] | GI50 (NIH-3T3 (fibroblasts); Mus musculus, NIH3T3, 72 hours) [µM] | GI50 ([6]; Homo sapiens, HL-60, 72 hours) [µM] | GI50 ([7]; Homo sapiens) [µM] | other results |
| --- | --- | --- | --- | --- | --- | --- | --- | --- |
| C/C(=C\CNc1ncnc2nc[nH]c12)CO [trans-zeatin, reference compound] | 2.1 | 0.9 |  |  |  |  |  | GI50 ([6]; 72 hours): > 167 µM; GI50 [7]: > 167 µM; GI50 ([4]; 72 hours, read-out: GI50 MCF7): > 167 µM; GI50 (NIH-3T3 (fibroblasts); 72 hours): > 167 µM |
